Data as given in patent publication US12606572B2, “Substituted heterocycles and uses thereof” (Kumquat Biosciences Inc., priority 2023, dated 2026).

target: T1, KRAS WT (Homo sapiens, UniProt P01116); experiment: HTRF assay, interaction of GST-tagged K-Ras with His-tagged hSOS1 (KRAS wildtype); type: biochemical; conditions: <500 nM, read-out: Inhibition of KRAS WT (IC50)
T1 construct: made in house; host or cells: E. coli BL21 (DE3)
Text: This assay can be also used to assess a selective inhibition or reduction of signaling output of a mutant Ras protein relative to a wildtype, or relative to a different mutant Ras protein. For example, the equilibrium interaction of wildtype KRAS or K-Ras mutant (e.g., wildtype or a mutant thereof) with SOS1 (e.g., hSOS1) can be assessed as a proxy or an indication for the ability of a subject compound to bind and inhibit Ras protein. The HTRF assay detects from (i) a fluorescence resonance energy transfer (FRET) donor (e.g., antiGST-Europium) that is bound to GST-tagged K-Ras mutant to (ii) a FRET acceptor (e.g., anti-6His-XL665) bound to a His-tagged hSOS1.
The assay buffer can contain ˜5 mM HEPES pH 7.4, ˜150 mM NaCl, ˜1 mM DTT, 0.05% BSA and 0.0025% (v/v) Igepal. A Ras working solution is prepared in an assay buffer containing typically a suitable amount of the protein construct (e.g., GST-tagged K-Ras mutant) and the FRET donor (e.g., antiGST-Eu(K) from Cisbio, France). A SOS1 working solution is prepared in an assay buffer containing suitable amount of the protein construct (e.g., His-hSOS1) and the FRET acceptor (e.g., anti-6His-XL665 from Cisbio, France). A suitable amount of the protein construct will depend on the range of activity or range of IC50 values being detected or under investigation. For detecting an IC50 within a range of 500 nM, the protein constructs of the same range of molarity can be utilized.
A fixed volume of DMSO with or without test compound is transferred into a 384-well plate. Ras working solution is added to all wells of the test plate. SOS1 working solution is added to all wells except for those that are subsequently filled with inhibitor control solution. Upon incubation for about 10 minutes or longer, the fluorescence is measured with a M1000Pro plate reader (Tecan) using HTRF detection (excitation 337 nm, emission 1: 620 nm, emission 2: 665 nm). Compounds are tested in duplicate at different concentrations (for example, 10 μM, 2.5 μM, 0.63 μM, 0.16 μM, 0.04 μM, 0.01 μM test compound). The ratiometric data (i.e., emission 2 divided by emission 1) is used to calculate IC50 values against Ras using GraphPad Prism (GraphPad software). Signaling output measured in terms of IC50 values can be obtained and a ratio of IC50 against one mutant relative to another mutant can be calculated. For instance, a selective reduction of K-Ras G12S signaling output can be evidenced by a ratio greater than one. In particular, a selective reduction of K-Ras G12S signaling relative to K-Ras WT signaling is evidenced if the ratio of IC50 (against K-Ras WT) to IC50 (against K-Ras G12S) is greater than 1.

T1 sequence (P01116 1-188 isoform P01116-2): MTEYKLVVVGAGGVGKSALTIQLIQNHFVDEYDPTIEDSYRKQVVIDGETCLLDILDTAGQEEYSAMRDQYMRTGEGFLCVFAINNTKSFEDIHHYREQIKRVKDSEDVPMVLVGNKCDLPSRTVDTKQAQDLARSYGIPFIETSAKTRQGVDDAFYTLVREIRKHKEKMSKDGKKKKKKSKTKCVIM

Row | Structure (SMILES) | IC50 [nM]
1 | Cc1cn(C(=O)N2CC[C@@H](N3C[C@H](C)Oc4cc(-c5cc(N)c(F)c(C)c5C(F)(F)F)c(F)c5nc(OC[C@@]67CCCN6C[C@H](F)C7)nc3c45)[C@H]2C)c(C)n1 [Compound 415, ((2R,3R)-3-((S)-9-(5-amino-4-fluoro-3-methyl-2-(trifluoromethyl)phenyl)-10-fluoro-2-(((2R,7aS)-2-fluorotetrahydro-1H-pyrrolizin-7a(5H)-yl)methoxy)-6-methyl-5,6-dihydro-4H-[1,4]oxazepino [5,6,7-de]quinazolin-4-yl)-2-methylpyrrolidin-1-yl)(2,4-dimethyl-1H-imidazol-1-yl)methanone] | < 500
2 | C[C@H](O)[C@H]1COc2c(Cl)c(-c3ccc(F)c4sc(N)c(C#N)c34)c(F)c3nc(OC[C@@]45CCCN4C[C@H](F)C5)nc(c23)N1C1CC(CN(C)C(=O)n2ccnc2)C1 (stereo partly drawn) [Compound 482, N-((3-((5R)-9-(2-amino-3-cyano-7-fluorobenzo[b]thiophen-4-yl)-8-chloro-10-fluoro-2-(((2R,7aS)-2-fluorotetrahydro-1H-pyrrolizin-7a(5H)-yl)methoxy)-5-((S)-1-hydroxyethyl)-5,6-dihydro-4H-[1,4]oxazepino [5,6,7-de]quinazolin-4-yl)cyclobutyl)methyl)-N-methyl-1H-imidazole-1-carboxamide] | < 500
3 | C[C@H]1COc2c(Cl)c(-c3ccc(F)c4sc(N)c(C#N)c34)c(F)c3nc(OC[C@@]45CCCN4C[C@H](F)C5)nc(c23)N1C[C@@H]1CN(C(=O)n2ccnc2)[C@@H]1C1(C)CC1 (single isomer, unassigned) [Compound 473] | < 500
4 | N#Cc1cn(C(=O)N2CC(CN3CCOc4c(Cl)c(-c5ccc(F)c6sc(N)c(C#N)c56)c(F)c5nc(OC[C@@]67CCCN6C[C@H](F)C7)nc3c45)C2)cn1 [Compound 478, 1-(3-((9-(2-amino-3-cyano-7-fluorobenzo[b]thiophen-4-yl)-8-chloro-10-fluoro-2-(((2R,7aS)-2-fluorotetrahydro-1H-pyrrolizin-7a(5H)-yl)methoxy)-5,6-dihydro-4H-[1,4]oxazepino[5,6,7-de]quinazolin-4-yl)methyl)azetidine-1-carbonyl)-1H-imidazole-4-carbonitrile] | < 500
5 | CC1([C@@H]2[C@H](CN3CCOc4c(Cl)c(-c5ccc(F)c6sc(N)c(C#N)c56)c(F)c5nc(OC[C@@]67CCCN6C[C@H](F)C7)nc3c45)CN2C(=O)n2ccnc2)CC1 [Compound 485, 4-(4-(((2S,3R)-1-(1H-imidazole-1-carbonyl)-2-(1-methylcyclopropyl)azetidin-3-yl)methyl)-8-chloro-10-fluoro-2-(((2R,7aS)-2-fluorotetrahydro-1H-pyrrolizin-7a(5H)-yl)methoxy)-5,6-dihydro-4H-[1,4]oxazepino [5,6,7-de]quinazolin-9-yl)-2-amino-7-fluorobenzo[b] thiophene-3-carbonitrile] | < 500
6 | CN1[C@H](C2CC2)[C@@H]1C(=O)N1CC(CN2CCOc3c(Cl)c(-c4ccc(F)c5sc(N)c(C#N)c45)c(F)c4nc(OC[C@@]56CCCN5C[C@H](F)C6)nc2c34)C1 (stereo partly drawn) [Compound 460, 2-amino-4-(8-chloro-4-((1-((2R,3R)-3-cyclopropyl-1-methylaziridine-2-carbonyl)azetidin-3-yl)methyl)-10-fluoro-2-(((2R,7aS)-2-fluorotetrahydro-1H-pyrrolizin-7a(5H)-yl)methoxy)-5,6-dihydro-4H-[1,4]oxazepino [5,6,7-de]quinazolin-9-yl)-7-fluorobenzo[b]thiophene-3-carbonitrile] | < 500
7 | CC(CN(C)C(=O)n1ccnc1)N1c2nc(OC[C@@]34CCCN3C[C@H](F)C4)nc3c(F)c(-c4ccc(F)c5sc(N)c(C#N)c45)c(Cl)c(c23)OC[C@@H]1[C@H](C)O (stereo partly drawn) [Compound 467, N-(2-((5R)-9-(2-amino-3-cyano-7-fluorobenzo[b]thiophen-4-yl)-8-chloro-10-fluoro-2-(((2R,7aS)-2-fluorotetrahydro-1H-pyrrolizin-7a(5H)-yl)methoxy)-5-((S)-1-hydroxyethyl)-5,6-dihydro-4H-[1,4]oxazepino[5,6,7-de]quinazolin-4-yl)propyl)-N-methyl-1H-imidazole-1-carboxamide] | < 500
